Test results taken from patent US12459941B2, “Tricyclic IRAK inhibitors” (Rigel Pharmaceuticals, Inc., priority 2022, dated 2025).
pEC50, pIC50: −log10 of the molar value.

Assays:
TNFa [1] = test: TNFa ELISA, PBMC, Resiquimod (R848) stimulated; assay type: cell-based; details: 10 pt curve
IRAK4 = target: T1, IRAK4 (Homo sapiens, UniProt Q9NWZ3); test: IRAK4 ADP-Glo assay; assay type: biochemical; details: 8 pt curve; read-out: IRAK4 ADP-Glo Kinase, 8 pt
T1 construct: purchased Signalchem I12-10G-20
T1 sequence (Q9NWZ3 1-460): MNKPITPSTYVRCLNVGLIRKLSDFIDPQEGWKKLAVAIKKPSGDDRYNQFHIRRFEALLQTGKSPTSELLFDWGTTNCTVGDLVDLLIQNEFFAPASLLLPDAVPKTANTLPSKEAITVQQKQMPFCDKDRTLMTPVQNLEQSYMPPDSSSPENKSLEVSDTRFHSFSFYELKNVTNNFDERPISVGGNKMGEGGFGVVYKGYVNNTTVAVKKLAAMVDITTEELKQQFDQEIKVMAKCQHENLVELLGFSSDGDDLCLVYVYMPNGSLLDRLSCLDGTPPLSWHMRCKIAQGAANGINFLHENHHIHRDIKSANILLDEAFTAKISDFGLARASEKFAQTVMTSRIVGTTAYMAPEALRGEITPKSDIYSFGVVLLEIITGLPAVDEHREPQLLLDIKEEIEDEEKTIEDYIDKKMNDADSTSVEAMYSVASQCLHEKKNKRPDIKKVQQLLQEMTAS
Protocol: IRAK4 Kinase Enzyme (Signalchem, I12-10G-20); 0.1M DTT (Signalchem, D86-09B); MBP Substrate (Signalchem, M42-51N); ADP Glo (Promega, V9101); 1M MgCl2 (Teknova, M03304); 1M Tris-HCl pH7.4 (Teknova, T1074); BSA (Sigma (A3059); Distilled H2O
Wallac Victor2 1420 Multilabel Counter
The ADP-Glo™ reagents were thawed at ambient temperature. The Kinase Detection Reagent was prepared by mixing kinase detection buffer with the lyophilized kinase detection substrate, and set aside.
A stock volume of 5× Reaction Kinase Buffer was made with a final concentration of 100 mM MgCl2, 200 mM Tris-HCl, and 0.5 mg/ml of BSA, in distilled H2O with a final pH7.4. A 2× working stock volume of Reaction Kinase Buffer was made containing a final concentration of […].
The components of IRAK4 Enzyme were thawed on ice. Diluted IRAK4 in 1× Kinase Reaction Buffer (diluted from 2× buffer) was prepared at […]. A […] working stock ATP Assay Solution was prepared in 1× Kinase Reaction Buffer (diluted from 2× buffer).
The compound was diluted in DMSO from 250 µM in 4-fold series dilutions for 8 points. Then diluted 1:5 in 2× Reaction Buffer in a 96 well plate. 1.01 was transferred to a 384 well plate in duplicate. […] 1 μl of 1 mg/ml stock solution of MBP substrate was added NOTE: MBP can be combined with ATP mix with equal volume and then added at 2 d/well. Final reaction volume was 5 μl.
The plate was centrifuged and the reaction mixture was incubated at room temperature for 60 minutes or at 30° C. for 30 minutes.
The reaction was terminated and the remaining ATP was depleted by adding 5 μl of ADP-Glo™ Reagent. The 384-well plate was centrifuged and then the reaction mixture was incubated for another 40 minutes at ambient temperature.
10 μl of the Kinase Detection Reagent was added. The plate was centrifuged and then the reaction mixture was incubated for another 30 minutes at ambient temperature.
The 384-well reaction plate was read using the WALLAC plate reader (Luminescence 0.1s).

TNFa [2] = test: TNFa ELISA, dendritic cells, Gardiquimod stimulated; assay type: cell-based; details: Homo sapiens, Dendritic cell, 10 pt curve
IRAK1 = IRAK1 (Homo sapiens, UniProt P51617); test: IRAK1 ADP-Glo Kinase assay; assay type: biochemical; details: 8 pt curve
Sequence of IRAK1 (P51617 whole entry): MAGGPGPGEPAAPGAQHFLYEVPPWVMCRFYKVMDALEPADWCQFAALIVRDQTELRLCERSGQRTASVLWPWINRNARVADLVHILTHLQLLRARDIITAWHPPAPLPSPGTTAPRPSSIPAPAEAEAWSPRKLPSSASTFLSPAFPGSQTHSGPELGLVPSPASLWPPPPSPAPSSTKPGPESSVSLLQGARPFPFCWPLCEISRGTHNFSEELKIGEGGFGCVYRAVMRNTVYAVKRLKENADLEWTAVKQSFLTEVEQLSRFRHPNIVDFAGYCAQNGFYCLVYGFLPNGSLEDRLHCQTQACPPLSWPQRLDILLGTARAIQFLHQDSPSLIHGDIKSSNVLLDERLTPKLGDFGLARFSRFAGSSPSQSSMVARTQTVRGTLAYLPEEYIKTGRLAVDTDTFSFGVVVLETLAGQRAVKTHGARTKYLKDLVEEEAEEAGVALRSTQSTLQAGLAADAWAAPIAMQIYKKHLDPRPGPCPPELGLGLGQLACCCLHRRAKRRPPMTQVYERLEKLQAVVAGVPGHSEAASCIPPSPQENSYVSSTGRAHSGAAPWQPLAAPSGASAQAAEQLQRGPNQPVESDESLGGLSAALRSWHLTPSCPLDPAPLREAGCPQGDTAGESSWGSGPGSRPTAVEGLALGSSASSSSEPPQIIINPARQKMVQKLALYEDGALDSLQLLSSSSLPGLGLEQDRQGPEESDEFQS

Row | SMILES | pEC50 (TNFa [1]) | pIC50 (IRAK4) | pEC50 (TNFa [2]) | pIC50 (IRAK1)
1 | O=C1CC[C@@H](COc2nccc3cc4c(=O)[nH]ccc4cc23)N1 [I-5, (S)-6-((5-oxopyrrolidin-2-yl)methoxy)pyrido[3,4-g]isoquinolin-1(2H)-one] | 5.36 | 6.80 | 5.25 | –
2 | O=C1CC[C@@H](COc2nccc3cc4c(=O)[nH]cc(I)c4cc23)N1 [I-6, (S)-4-iodo-6-((5-oxopyrrolidin-2-yl)methoxy)pyrido[3,4-g]isoquinolin-1(2H)-one] | 7.49 | 8.51 | 7.34 | –
3 | C=Cc1c[nH]c(=O)c2cc3ccnc(OC[C@@H]4CCC(=O)N4)c3cc12 [I-7, (S)-6-((5-oxopyrrolidin-2-yl)methoxy)-4-vinylpyrido[3,4-g]isoquinolin-1(2H)-one] | 6.72 | 8.32 | 6.67 | 5.37
4 | CCc1c[nH]c(=O)c2cc3ccnc(OC[C@@H]4CCC(=O)N4)c3cc12 [I-8, (S)-4-ethyl-6-((5-oxopyrrolidin-2-yl)methoxy)pyrido[3,4-g]isoquinolin-1(2H)-one] | 6.95 | 8.07 | 6.83 | 5.14
5 | C=CCc1c[nH]c(=O)c2cc3ccnc(OC[C@@H]4CCC(=O)N4)c3cc12 [I-9, (S)-4-allyl-6-((5-oxopyrrolidin-2-yl)methoxy)pyrido[3,4-g]isoquinolin-1(2H)-one] | 6.42 | 7.84 | 6.38 | 5.16
6 | CCCc1c[nH]c(=O)c2cc3ccnc(OC[C@@H]4CCC(=O)N4)c3cc12 [I-10, (S)-6-((5-oxopyrrolidin-2-yl)methoxy)-4-propylpyrido[3,4-g]isoquinolin-1(2H)-one] | 6.43 | 7.13 | 6.21 | 4.95
7 | C=C(C)c1c[nH]c(=O)c2cc3ccnc(OC[C@@H]4CCC(=O)N4)c3cc12 [I-11, (S)-6-((5-oxopyrrolidin-2-yl)methoxy)-4-(prop-1-en-2-yl)pyrido[3,4-g]isoquinolin-1(2H)-one] | 7.12 | 8.11 | – | 5.19
8 | O=C1CC[C@@H](COc2nccc3cc4c(=O)[nH]cc(C5CCC5)c4cc23)N1 [I-12, (S)-4-cyclobutyl-6-((5-oxopyrrolidin-2-yl)methoxy)pyrido[3,4-g]isoquinolin-1(2H)-one] | 6.69 | 7.40 | 4.93 | 5.10
9 | N#Cc1c[nH]c(=O)c2cc3ccnc(OC[C@@H]4CCC(=O)N4)c3cc12 [I-16, (S)-1-oxo-6-((5-oxopyrrolidin-2-yl)methoxy)-1,2-dihydropyrido[3,4-g]isoquinoline-4-carbonitrile] | 5.78 | 7.65 | – | 4.99
10 | C#Cc1c[nH]c(=O)c2cc3ccnc(OC[C@@H]4CCC(=O)N4)c3cc12 [I-18, (S)-4-ethynyl-6-((5-oxopyrrolidin-2-yl)methoxy)pyrido[3,4-g]isoquinolin-1(2H)-one] | 6.47 | 7.84 | 6.45 | 4.92
11 | O=C1CC[C@@H](COc2nccc3cc4c(=O)[nH]cc(CC(F)(F)F)c4cc23)N1 [I-19, (S)-6-((5-oxopyrrolidin-2-yl)methoxy)-4-(2,2,2-trifluoroethyl)pyrido[3,4-g]isoquinolin-1(2H)-one] | 6.68 | 6.98 | 6.75 | 4.83
12 | O=C1CC[C@@H](COc2nccc3cc4c(=O)[nH]cc(C5CNC5)c4cc23)N1 [I-23, (S)-4-(azetidin-3-yl)-6-((5-oxopyrrolidin-2-yl)methoxy)pyrido[3,4-g]isoquinolin-1(2H)-one] | – | 5.62 | – | –
13 | CC(C)(N)c1c[nH]c(=O)c2cc3ccnc(OC[C@@H]4CCC(=O)N4)c3cc12 [I-26, (S)-4-(2-aminopropan-2-yl)-6-((5-oxopyrrolidin-2-yl)methoxy)pyrido[3,4-g]isoquinolin-1(2H)-one] | 5.75 | 5.27 | – | –
14 | NC(=O)c1c[nH]c(=O)c2cc3ccnc(OC[C@@H]4CCC(=O)N4)c3cc12 [I-27, (S)-1-oxo-6-((5-oxopyrrolidin-2-yl)methoxy)-1,2-dihydropyrido[3,4-g]isoquinoline-4-carboxamide] | – | 6.01 | – | –
15 | CC(=O)c1c[nH]c(=O)c2cc3ccnc(OC[C@@H]4CCC(=O)N4)c3cc12 [I-28, (S)-4-acetyl-6-((5-oxopyrrolidin-2-yl)methoxy)pyrido[3,4-g]isoquinolin-1(2H)-one] | 5.25 | 7.56 | – | –
16 | O=C1CC[C@@H](COc2nccc3cc4c(=O)[nH]cc(-c5cn[nH]c5)c4cc23)N1 [I-33, (S)-6-((5-oxopyrrolidin-2-yl)methoxy)-4-(1H-pyrazol-4-yl)pyrido[3,4-g]isoquinolin-1(2H)-one] | – | 7.55 | 4.59 | 5.52
17 | CC(O)c1c[nH]c(=O)c2cc3ccnc(OC[C@@H]4CCC(=O)N4)c3cc12 (stereo partly drawn) [I-36, 4-(1-hydroxyethyl)-6-(((S)-5-oxopyrrolidin-2-yl)methoxy)pyrido[3,4-g]isoquinolin-1(2H)-one] | 5.99 | 7.20 | 4.20 | 4.95
18 | C#CC(C)(O)c1c[nH]c(=O)c2cc3ccnc(OC[C@@H]4CCC(=O)N4)c3cc12 (stereo partly drawn) [I-37, 4-(2-hydroxybut-3-yn-2-yl)-6-(((S)-5-oxopyrrolidin-2-yl)methoxy)pyrido[3,4-g]isoquinolin-1(2H)-one] | – | 5.92 | 4.36 | 4.96
19 | NC(=O)Cc1c[nH]c(=O)c2cc3ccnc(OC[C@@H]4CCC(=O)N4)c3cc12 [I-41, (S)-2-(1-oxo-6-((5-oxopyrrolidin-2-yl)methoxy)-1,2-dihydropyrido[3,4-g]isoquinolin-4-yl)acetamide] | – | 5.60 | – | –
20 | CC[C@@H]1[C@H](F)C(=O)N[C@@H]1COc1nccc2cc3c(=O)[nH]cc(I)c3cc12 [I-44, 6-(((2S,3S,4S)-3-ethyl-4-fluoro-5-oxopyrrolidin-2-yl)methoxy)-4-iodopyrido[3,4-g]isoquinolin-1(2H)-one] | 8.28 | 8.38 | 8.70 | 7.56
21 | CC[C@@H]1[C@H](F)C(=O)N[C@@H]1COc1nccc2cc3c(=O)[nH]cc(C)c3cc12 [I-45, 6-(((2S,3S,4S)-3-ethyl-4-fluoro-5-oxopyrrolidin-2-yl)methoxy)-4-methylpyrido[3,4-g]isoquinolin-1(2H)-one] | 8.57 | 8.26 | 8.47 | 7.74
22 | CC[C@@H]1[C@H](F)C(=O)N[C@@H]1COc1nccc2cc3c(=O)[nH]ccc3cc12 [I-46, 6-(((2S,3S,4S)-3-ethyl-4-fluoro-5-oxopyrrolidin-2-yl)methoxy)pyrido[3,4-g]isoquinolin-1(2H)-one] | 6.53 | 8.19 | 6.62 | 5.95
23 | CS(=O)(=O)c1c[nH]c(=O)c2cc3ccnc(OC[C@@H]4CCC(=O)N4)c3cc12 [I-48, (S)-4-(methylsulfonyl)-6-((5-oxopyrrolidin-2-yl)methoxy)pyrido[3,4-g]isoquinolin-1(2H)-one] | 5.00 | 4.86 | – | –
24 | CC(C)(O)C#Cc1c[nH]c(=O)c2cc3ccnc(OC[C@@H]4CCC(=O)N4)c3cc12 [I-49, (S)-4-(3-hydroxy-3-methylbut-1-yn-1-yl)-6-((5-oxopyrrolidin-2-yl)methoxy)pyrido[3,4-g]isoquinolin-1(2H)-one] | 5.84 | – | – | –
25 | CC(C)Cc1c[nH]c(=O)c2cc3ccnc(OC[C@@H]4CCC(=O)N4)c3cc12 [I-50, (S)-4-isobutyl-6-((5-oxopyrrolidin-2-yl)methoxy)pyrido[3,4-g]isoquinolin-1(2H)-one] | – | 5.66 | – | –
26 | CC[C@@H]1[C@H](F)C(=O)N[C@@H]1COc1nccc2cc3c(=O)[nH]cc(C(C)C)c3cc12 [I-51, 6-(((2S,3S,4S)-3-ethyl-4-fluoro-5-oxopyrrolidin-2-yl)methoxy)-4-isopropylpyrido[3,4-g]isoquinolin-1(2H)-one] | 8.40 | 8.00 | – | 7.11
